Experimental data from US20250376659A1, “DERIVATION OF SOMATOTROPHS FROM STEM CELLS AND USES THEREOF” (MEMORIAL SLOAN-KETTERING CANCER CENTER, priority 2017, published 2025).
“Also recorded” adds a separate entry of the source. No end group written: not given here.

B1: FGF8: activator of FGF signaling, dorsalizing agent (protein, UniProt P55075 23-233, looked up)
Fibroblast growth factor 8: QEGPGRGPALGRELASLFRAGREPQGVSQQHVREQSLVTDQLSRRLIRTYQLYSRTSGKHVQVLANKRINAMAEDGDPFAKLIVETDTFGSRVRVRGAETGLYICMNKKGKLIAKSNGKGKDCVFTEIVLENNYTALQNAKYEGWYMAFTRKGRPRKGSKTRQHQREVHFMKRLPRGHHTTEQSLRFEFLNYPPFTRSLRGSQRTWAPEPR
B2: IL10: interleukin (protein, UniProt P22301 19-178, looked up)
Interleukin-10: SPGQGTQSENSCTHFPGNLPNMLRDLRDAFSRVKTFFQMKDQLDNLLLKESLLEDFKGYLGCQALSEMIQFYLEEVMPQAENQDPDIKAHVNSLGENLKTLRLRLRRCHRFLPCENKSKAVEQVKNAFNKLQEKGIYKAMSEFDIFINYIEAYMTMKIRN

Columns and labels:
Human ES or iPS cells = experiment: Marker gene expression during step-wise differentiation of human pluripotent stem cells to somatotrophs; type: cell-based; conditions: for PIT1 expression: FIG. 4, FIG. 5, FIG. 16; for PIT1 expression / GH1 expression: compared with the control group; for GH1 expression: FIG. 6, 7A, 7B, 16
Method: Human ES or iPS cells were expanded in E8 media on matrigel.
On day 0, cells were changed to E6 media where BMP4 (5 ng/ml) and SB43152 (10 μM) were added, with daily medium and factors change.
On day 3, BMP4 was removed and the following factors added: FGF8 (100 ng/ml); FGF10 (50 ng/ml); FGF18 (50 ng/ml); Sonic hedgehog (SHH) (100 ng/ml) or SAG (Smoothened Agonist) (100 nM); LDN193189 (250 nM). Media and factors were changed every other day.
Media and factors are changed every other day.
(§1) On day 15, the following factors were used: Retinoic acid (1 μM); Thyroid hormone T3 (10 nM); Dexamethasone (1 μM); cyclic AMP (100 μg/ml); DPN (0.1 nM); Growth Hormone Releasing Hormone (GHRH) (1 μM). Media and factors were changed every other day.
On day 29, the cells entered the maturation phase and could be maintained in the same factors for a variable period ranging from 1-4 weeks. […] They could be subjected to FACS sorting for GHRH in order to obtain a pure cell population of somatotrophs. Cells remained on matrigel for the duration of the protocol.
In order to derive GH cells, the strategy was to first differentiate human pluripotent stem cells to pre-placodal ectoderm and anterior pituitary progenitors. The cells were further differentiated to PROP1 lineage, and then to PIT1 lineage. The cells were then terminally differentiated to GH cells. The step-wise protocol to differentiate pluripotent stem cells into growth hormone secreting cells involved promoting Prop1 expression in anterior pituitary progenitors, activating POU1F1 (PIT1), directing cell differentiation to growth hormone expressing cells. The growth hormone expressing cells were also further matured via prolonged incubation. The key markers to monitor the process of differentiation comprised Prop1, POU1F1 (PIT1), GH and GHRHR.
For example, the first step was to induce non-neural ectoderm by BMP4 and inhibitor of TGF-β/Activin/NODAL pathway (e.g., SB431542). Then the cells were subjected to inhibitor of TGF-β/Activin/NODAL pathway (e.g., SB431542), FGF8/10/18, SHH agonist (e.g., SHH), and a SMAD inhibitor (e.g., LDN 193189) to induce anterior pituitary progenitors, which were characterized by PITX1/2, LHX3/4 and PROP1 expression.
For selective differentiation to somatotrophs, retinoic acid were used to suppress POMC expressed by corticotrophs and to promote GH1 expression which is expressed by somatotrophs. In addition, the corticosteroid (e.g., Dexamethasone) and thyroid hormone (e.g., T3) were added to the medium to inhibit PRL (expressed by lactotroph) and TSH (expressed by thyrotroph), while promoting GH1 expression.

rodent GSK3β homologs = conditions: cited from earlier work
somatotrophs = experiment: GHRH stimulation of stem-cell-derived GH cell population; type: cell-based, human; conditions: cell population after growth hormone induction, FIG. 8 lower right panel
Method: as §1
On day 29, the cells entered the maturation phase and could be maintained in the same factors for a variable period ranging from 1-4 weeks. Cells at this stage expressed GHRH receptors (GHRHR). They could be subjected to FACS sorting for GHRH in order to obtain a pure cell population of somatotrophs. Cells remained on matrigel for the duration of the protocol.
After this step, the majority population in culture were somatotrophs which expressed the somatotroph marker GH1 and secreted growth hormone in the supernatant. The phenotype of the population is shown FIG. 8. The cell population expressed high amount of GH and GHRHR, and low amount of TSH, PRL and LH. GH expression was further increased upon GHRH stimulation (FIG. 8, lower right panel).

Molecule | PIT1 expression (Human ES or iPS cells) | GH1 expression (Human ES or iPS cells) | also measured
Cc1c[nH]c(-c2cnc(NCCNc3ccc(C#N)cn3)nc2-c2ccc(Cl)cc2Cl)n1 [CHIR99021, 6-(2-(4-(2,4-dichlorophenyl)-5-(4-methyl-1H-imidazol-2-yl)pyrimidin-2-ylamino)ethylamino) nicotinonitrile, reference compound] | induce |  | IC50 values against rodent GSK3β homologs (rodent GSK3β homologs): nanomolar
N#CC(Cc1ccc(O)cc1)c1ccc(O)cc1 (stereo not drawn) [DPN, 2,3-bis(4-hydroxyphenyl) propionitrile, reference compound] |  | further promoted | 
N[C@@H](Cc1cc(I)c(Oc2ccc(O)c(I)c2)c(I)c1)C(=O)O [T3, reference compound] |  |  | TSH-β expression (Human ES or iPS cells; FIG. 7C, p-value<0.01 compared with the control groups): significantly reduced
C[C@]12C[C@H](O)[C@H]3[C@@H](CCC4=CC(=O)CC[C@@]43C)[C@@H]1CC[C@@H]2C(=O)CO [corticosterone, reference compound] |  |  | PRL expression (Human ES or iPS cells; FIG. 7D, p-value<0.01 compared with the control groups): significantly reduced
GHRH: Growth Hormone Releasing Hormone, GHRH signaling pathway agonist (YADAIFTNSYRKVLGQLSARKLLQDIMSRQQGESNQERGARARL; ends and bridges not checked; UniProt P01286 32-75, looked up) |  | significantly increased; also recorded: further promoted | GH expression upon GHRH stimulation (somatotrophs): increased
Ghrelin: Ghrelin signaling pathway agonist (GSSFLSPEHQRVQQRKESKKPPAKLQPR; ends and bridges not checked; UniProt Q9UBU3 24-51, looked up) |  | promoting | 
IL 6: interleukin | increased | increased | 
B1 | downregulated |  | PROP1 expression (Human ES or iPS cells; FIG. 3, FIG. 5): maintained; POMC expression (Human ES or iPS cells; FIG. 5): upregulated
B2 | increased | increased | 
